One series concerns ER/IL-6. The series is described as follows: Endothelial Cell ER/IL-6 Assay, IL-6 promoter luciferase (Table 2). Conditions: ERα infected HAECT-1 cells, IL-1β; for IC50: read-out: IL6 luc IC50; for Emax: read-out: IL6 luc % Efficacy. Type of series: cell-based, human. As for the experimental part:
T-175 flasks of 100% confluent HAECT-1 cells (immortalized human aortic endothelial cells) were washed with 8 ml of HBSS (HEPES buffered saline solution) and infected for fours hours with 6 ml of a 1:10 dilution of Ad5-wt-hERα virus (an adenovirus transfection vector that mediates CMV promoter driven expression of human ERα) in phenol red free Endothelial Cell Basal medium (Clonetics, San Diego, Calif., Catalog # CC-3129) containing 0.25% bovine serum albumin (EDM-BSA). After four hours, cells were washed with EDM-BSA and incubated overnight in the same medium. Following overnight incubation, cells were washed with EDM-BSA and infected for 2 hours with 6 ml of a 1:10 dilution of Ad5-3x(NFκB).Luc virus (Adenovirus luciferase expression vector driven by three repeats of the MHC NFκb sites 5′ to the thymidine kinase promoter) in EDM-BSA. After two hours, cells were washed and incubated at 34° C. for one hour. Cells were then washed, trypsinized, counted, and resuspended in 95% FBS/5% dimethylsulfoxide at a concentration of […], frozen as 1 or 5 ml aliquots in cryo-vials and stored at −150° C. Control (no ER infection) cells were processed as above without Ad5-wt-hERα virus infection.
ERα infected HAECT-1 cells or control cells were thawed, diluted 42× in warm EBM-BSA, plated into 96-well plates at 0.1 ml/well and incubated for 4 hours at 34° C. Test compounds were added to the cells at 2× stocks in EBM-BSA containing 2 ng/ml IL-1β Ad6-IL-6(1250 bp).Luc virus and plates were returned to the incubator (34° C.). After […], cells were lysed with 50 μl of Promega Cell Culture Lysis reagenet for about 5 minutes at room temperature on a shaker. After lysing, 15 μl of lysate is transferred to luminometer plates for luciferase determination. Luciferase activity is evaluated using a Perkin Elmer Victor2 1420 multilabel counter. Creatine kinase was determined from the rate of increase in A340 following addition of 100 μl of CK assay reagent (Sigma catalog no. 47-10) to the remainder of the cell lysate.
For IC50 and EC50 calculations, mean IL-6, luciferase or CK values versus log10 of the compound concentration were fitted to a four parameter logistic equation. The IC50/EC50 value, ‘Hill slope,’ upper and lower limits of the curve were iteratively estimated.

The structures appear in SMILES notation. “And” between values parts separate entries of the source, which are not always exact repeats. Equal values may be shown once. Read-outs that look alike come from different tables or passages of the source.

Consider `CC(C)(C)OC(=O)C(C#N)C(c1ccccc1OC(F)(F)F)c1cccc2ccccc12` (stereo not shown), for which the melting point is 115 to 118 °C.

In turn, `Cc1cccc(C)c1C(c1cccc2ccccc12)C(C#N)C(=O)OC(C)(C)C` (stereo not shown) returned a melting point of 124 to 128 °C.

The compound `COc1ccccc1[C@H](c1cccc2ccccc12)[C@@](C)(C#N)C(=O)N1CCC(O)(c2ccc(Br)cc2)CC1` gave a melting point of 206 to 208 °C.

As to `COc1ccccc1[C@H](c1cccc2ccccc12)[C@@](C)(C#N)C(=O)N1CCN(CC(=O)N2CCOCC2)CC1`, the melting point was 201 °C.

Turning to `COc1ccccc1[C@H](c1cccc2ccccc12)[C@@](C)(C#N)C(=O)N1CCN(C(=O)c2ccco2)CC1`, the melting point was determined as 193 °C.

For the compound `COc1ccccc1[C@H](c1cccc2ccccc12)[C@@](C)(C#N)C(=O)N1CCN(CCN2CCOCC2)CC1`, the melting point was in the range of 102 to 103 °C.

`CCOC(=O)C(C)(C#N)C(c1cccc2ccccc12)c1cccc2ccccc12` (stereo not shown) displayed a melting point of 186 to 188 °C.

In turn, `COc1ccccc1[C@H](c1cccc2ccccc12)[C@@](C)(C#N)C(=O)N1CCN(c2cccc(C)c2)CC1` returned a melting point of 104 to 105 °C.

As for `COc1cc(OC)cc(N2CCN(C(=O)[C@](C)(C#N)[C@H](c3ccccc3OC)c3cccc4ccccc34)CC2)c1`, the melting point lay in the range of 186 to 188 °C.

For `COc1ccccc1[C@H](c1cccc2ccccc12)[C@@](C)(C#N)C(=O)N1CCN(c2cccc3c2CCC3)CC1`, the melting point fell in the range of 188 to 190 °C.

`COc1ccccc1[C@H](c1cccc2ccccc12)[C@@](C)(C#N)C(=O)N1CCN(c2ccc(C)c(C)c2)CC1` gave a melting point of 181 to 183 °C.

For `COc1ccccc1[C@H](c1cccc2ccccc12)[C@@](C)(C#N)C(=O)N1CCN(c2cccc(Cl)c2)CC1`, the melting point fell in the range of 174 to 176 °C.

The compound `COc1ccccc1[C@H](c1cccc2ccccc12)[C@@](C)(C#N)C(=O)N1CCN(c2cccc(C)c2C)CC1` showed a melting point of 194 to 195 °C.

For the compound `COc1ccccc1[C@H](c1cccc2ccccc12)[C@@](C)(C#N)C(=O)N1CCN(c2ccc(Cl)cc2)CC1`, the melting point lay in the range of 178 to 180 °C.

Take `COc1ccccc1[C@H](c1cccc2ccccc12)[C@@](C)(C#N)C(=O)N1CCN(c2cccc3[nH]ccc23)CC1`: the melting point was in the range of 174 to 176 °C.

For the compound `COc1ccccc1[C@H](c1cccc2ccccc12)[C@@](C)(C#N)C(=O)N1CC=C(c2ccc(Cl)cc2)CC1`, the melting point lay within 118 to 122 °C.

The compound `COc1ccccc1[C@H](c1cccc2ccccc12)[C@@](C)(C#N)C(=O)N1CCN(c2ccccc2F)CC1` came in with a melting point of 145 to 148 °C.

Compound `COc1ccccc1[C@H](c1cccc2ccccc12)[C@@](C)(C#N)C(=O)N1CCN(c2ccccc2Cl)CC1` yielded a melting point of 145 to 147 °C.

Consider `COc1cccc(N2CCN(C(=O)[C@](C)(C#N)[C@H](c3ccccc3OC)c3cccc4ccccc34)CC2)c1`, for which the melting point fell in the range of 147 to 148 °C.

For the compound `CC(C)(C)OC(=O)C(C#N)C(c1cccc2ccccc12)c1cccc2ccccc12` (stereo not shown), the melting point was 156 to 157 °C.

The compound `CC(C)(C)OC(=O)[C@@](C)(C#N)[C@H](c1ccccc1OC(F)(F)F)c1cccc2ccccc12` (racemic) displayed a melting point of 150 to 153 °C.

Take `COC(=O)[C@@](C#N)(CCN1CCOCC1)[C@H](c1ccccc1OC)c1cccc2ccccc12` (relative stereo) [Example 147, Methyl (2S*)-2-cyano-2-[(S*)-(2-methoxyphenyl)(1-naphthyl)methyl]-4-morpholin-4-ylbutanoate]: the IC50 in the series on ER/IL-6 (Homo sapiens, HAECT1) was 12 nM.

For the compound `CCN(CC)CC[C@](C#N)(C(=O)OC)[C@H](c1ccccc1OC)c1cccc2ccccc12` (relative stereo) [Example 148, Methyl (2S*)-2-cyano-4-(diethylamino)-2-[(S*)-(2-methoxyphenyl)(1-naphthyl)methyl]butanoate], in the series on ER/IL-6 (Homo sapiens, HAECT1), the 50% inhibitory concentration (IC50) is 257 nM.

In the case of `COc1ccccc1[C@H](c1cccc2ccccc12)[C@@](C)(C#N)C(=O)N1CC=C(c2ccc(F)cc2)CC1` [Example 137, (2S)-3-[4-(4-fluorophenyl)-3,6-dihydropyridin-1(2H)-yl]-2-[(S)-(2-methoxyphenyl)(1-naphthyl)methyl]-2-methyl-3-oxopropanenitrile], in the series on ER/IL-6 (Homo sapiens, HAECT1), the Emax came to 163% and the IC50 stood at 33 nM.

Take `COc1ccccc1[C@H](c1cccc2ccccc12)[C@@](C)(C#N)C(=O)N1CCC(O)(c2cccc(C(F)(F)F)c2)CC1` [Example 140, (2S)-3-{4-hydroxy-4-[3-(trifluoromethyl)phenyl]piperidin-1-yl}-2-[(S)-(2-methoxyphenyl)(1-naphthyl)methyl]-2-methyl-3-oxopropanenitrile]: in the series with ER/IL-6 (Homo sapiens, HAECT1), the Emax was determined as 125% and the IC50 was 324 nM.

`COCCOC[C@@](C#N)(C(=O)OC)[C@@H](c1ccccc1OC)c1cccc2ccccc12` [Example 159, Methyl (2R,3R)-2-cyano-2-[(2-methoxyethoxy)methyl]-3-(2-methoxyphenyl)-3-(1-naphthyl)propanoate]: in the series with ER/IL-6 (Homo sapiens, HAECT1), the Emax is 95% and the IC50 is 273 nM.

With `COc1ccccc1C(c1cnc2ccccc2c1)C(C)(C#N)C(=O)N1CCC(c2cccc(C(F)(F)F)c2)CC1` (stereo not shown) [Example 164, 3-(2-Methoxyphenyl)-2-methyl-3-quinolin-3-yl-2-({4-[3-(trifluoromethyl)phenyl]piperidin-1-yl}carbonyl)propanenitrile], in the series with ER/IL-6 (Homo sapiens, HAECT1), the Emax stood at 48% and the IC50 stood at 32 nM.

On to `COCCOC[C@@](C#N)(C(=O)N1CCC(c2cccc(C(F)(F)F)c2)CC1)[C@@H](c1ccccc1OC)c1cccc2ccccc12` [Example 168, (RR,SS)-2-[(2-Methoxyethoxy)methyl]-3-(2-methoxyphenyl)-3-(1-naphthyl)-2-({4-[3-(trifluoromethyl)phenyl]piperidin-1-yl}carbonyl)propanenitrile], for which, in the series on ER/IL-6, the “IL6 luc % Efficacy” value is given as 68% and the IC50 is 37 nM.

Turning to `COCCOC[C@@](C#N)(C(=O)NCC(C)(C)C)[C@@H](c1ccccc1OC)c1cccc2ccccc12` [Example 170, (RR,SS)-2-Cyano-N-(2,2-dimethylpropyl)-2-[(2-methoxyethoxy)methyl]-3-(2-methoxyphenyl)-3-(1-naphthyl)propanamide], in the series on ER/IL-6, the “IL6 luc % Efficacy” value is 89% and the IC50 was 577 nM.

For `COCCOC[C@@](C#N)(C(=O)N1CCN(c2cnccn2)CC1)[C@@H](c1ccccc1OC)c1cccc2ccccc12` [Example 171, (RR,SS)-2-[(2-methoxyethoxy)methyl]-3-(2-methoxyphenyl)-3-(1-naphthyl)-2-[(4-pyrazin-2-ylpiperazin-1-yl)carbonyl]propanenitrile], in the series on ER/IL-6, the “IL6 luc % Efficacy” value is on record as 54% and the IC50 was found to be 337 nM.

With `COc1ccccc1[C@@H](c1cccc2ccccc12)[C@@](C#N)(Cc1cccnc1)C(=O)NCC(C)(C)C` [Example 176, (RR,SS)-2-cyano-N-(2,2-dimethylpropyl)-3-(2-methoxyphenyl)-3-(1-naphthyl)-2-(pyridin-3-ylmethyl)propanamide], in the series with ER/IL-6, the “IL6 luc % Efficacy” value turned out to be 71% and the IC50 was determined as 413 nM.

As to `COc1ccccc1[C@@H](c1cccc2ccccc12)[C@@](C#N)(Cc1cccnc1)C(=O)OC(C)(C)C` [Example 179, tert-Butyl (RR,SS)-2-cyano-3-(2-methoxyphenyl)-3-(1-naphthyl)-2-(pyridin-3-ylmethyl)propanoate], in the series with ER/IL-6, the “IL6 luc % Efficacy” value turned out to be 128% and the IC50 worked out at 151 nM.

Turning to `COCC(C#N)(C(=O)NC(C)(C)C)C(c1ccccc1OC)c1cccc2ccccc12` (stereo not drawn) [Example 180, (RR,SS)-N-(tert-butyl)-2-cyano-2-(methoxymethyl)-3-(2-methoxyphenyl)-3-(1-naphthyl)propanamide], in the series with ER/IL-6, the “IL6 luc % Efficacy” value is on record as 119% and the IC50 amounted to 200 nM.

With `COC[C@@](C#N)(C(=O)N1CCN(CCN2CCOCC2)CC1)[C@@H](c1ccccc1OC)c1cccc2ccccc12` [Example 219, (RR,SS)-2-(methoxymethyl)-3-(2-methoxyphenyl)-2-{[4-(2-morpholin-4-ylethyl)piperazin-1-yl]carbonyl}-3-(1-naphthyl)propanenitrile], in the series with ER/IL-6, the “IL6 luc % Efficacy” value worked out at 74% and the IC50 was found to be 1400 nM.

As for `COC[C@](C#N)(C(=O)N1CCN(C2CCCCC2)CC1)[C@H](c1ccccc1OC)c1cccc2ccccc12` [Example 221, (2S,3S)-3-(4-cyclohexylpiperazin-1-yl)-2-(methoxymethyl)-2-[(2-methoxyphenyl)(1-naphthyl)methyl]-3-oxopropanenitrile], the “IL6 luc % Efficacy” value in the series on ER/IL-6 is 159% and 245% and 174%.

Values taken from patent US20050256132A1, “Use of ER selective NF-kB inhibitors for the treatment of sepsis” (priority 2003, published 2005).
